From patent US20150105252A1, “SUBSTITUTED PYRAZOLES AS HERBICIDES” (E I DU PONT DE NEMOURS AND COMPANY, priority 2013, published 2015)

Assays:
buckwheat, wild = assay: Test D postemergence; type: in vivo, Polygonum convolvulus; conditions: scale 0 to 100
Description: (§1) Seeds of plant species selected from bluegrass (annual bluegrass, Poa annua), blackgrass (Alopecurus myosuroides), canarygrass (littleseed canarygrass, Phalaris minor), chickweed (common chickweed, Stellaria media), galium (catchweed bedstraw, Galium aparine), bromegrass, downy (downy bromegrass, Bromus tectorum), field poppy (Papaver rhoeas), field violet (Viola arvensis), foxtail, green (green foxtail, Setaria viridis), deadnettle (henbit deadnettle, Lamium amplexicaule), ryegrass, Italian (Italian ryegrass, Lolium multiflorum), kochia (Kochia scoparia), lambsquarters (Chenopodium album), oilseed rape (Brassica napus), pigweed (redroot pigweed, Amaranthus retroflexus), chamomile (scentless chamomile, Matricaria inodora), speedwell (bird's-eye speedwell, Veronica persica), barley, spring (spring barley, Hordeum vulgare), wheat, spring (spring wheat, Triticum aestivum), buckwheat, wild (wild buckwheat, Polygonum convolvulus), mustard, wild (wild mustard, Sinapis arvensis), oat, wild (wild oat, Avena fatua), radish, wild (wild radish, Raphanus raphanistrum), windgrass (Apera spica-venti), Russian thistle (Salsola kali), barley, winter (winter barley, Hordeum vulgare), and wheat, winter (winter wheat, Triticum aestivum) were planted into a silt loam soil and treated preemergence with test chemicals formulated in a non-phytotoxic solvent mixture which included a surfactant.
(§2) At the same time, these species were planted in pots containing Redi-Earth® planting medium (Scotts Company, 14111 Scottslawn Road, Marysville, Ohio 43041) comprising spaghnum peat moss, vermiculite, wetting agent and starter nutrients and treated with postemergence applications of the test chemicals formulated in the same manner. Plants ranged in height from 2 to 18 cm (1- to 4-leaf stage). Treated plants and controls were maintained in a controlled growth environment for 14 to 21 days after which time all species were compared to controls and visually evaluated. Plant response ratings, summarized in Table D, are based on a scale of 0 to 100 where 0 is no effect and 100 is complete control. A dash (-) response means no test result.

galium = assay: Test D postemergence; type: in vivo, Galium aparine; conditions: scale 0 to 100
Description: as §1, §2

wheat, spring = assay: Test D preemergence; type: in vivo, Triticum aestivum; conditions: scale 0 to 100
Description: as §1, §2

wheat, winter = assay: Test D preemergence; type: in vivo, Triticum aestivum; conditions: scale 0 to 100
Description: as §1, §2

chickweed = assay: Test D preemergence; type: in vivo, Stellaria media; conditions: scale 0 to 100
Description: as §1, §2

windgrass [1] = assay: Test D preemergence; type: in vivo, Apera spica-venti; conditions: scale 0 to 100
Description: as §1, §2

blackgrass = assay: Test D preemergence; type: in vivo, Alopecurus myosuroides; conditions: scale 0 to 100
Description: as §1, §2

field violet = assay: Test D preemergence; type: in vivo, Viola arvensis; conditions: scale 0 to 100
Description: as §1, §2

windgrass [2] = assay: Test D postemergence; type: in vivo, Apera spica-venti; conditions: scale 0 to 100
Description: as §1, §2

field poppy = assay: Test D preemergence; type: in vivo, Papaver rhoeas; conditions: scale 0 to 100
Description: as §1, §2

dayflower, VA = assay: Test F preemergence; type: in vivo, Commelina virginica
Description: (§3) Seeds of plant species selected from corn (Zea mays), soybean (Glycine max), velvetleaf (Abutilon theophrasti), lambsquarters (Chenopodium album), wild poinsettia (Euphorbia heterophylla), pigweed, palmer (palmer pigweed, Amaranthus palmeri), common waterhemp (Amaranthus rudis), surinam grass (Brachiaria decumbens), large crabgrass (Digitaria sanguinalis), crabgrass, Brazil (Brazilian crabgrass, Digitaria horizontalis), fall panicum (Panicum dichotomiflorum), giant foxtail (Setaria faberii), green foxtail (Setaria viridis), goosegrass (Eleusine indica), johnsongrass (Sorghum halepense), common ragweed (Ambrosia elation), barnyardgrass (Echinochloa crus-galli), southern sandbur (Cenchrus echinatus), arrowleaf sida (Sida rhombifolia), Italian ryegrass (Lolium multiflorum), dayflower, VA (Virginia (VA) dayflower, Commelina virginica), field bindweed (Convolvulus arvensis), cocklebur (common cocklebur, Xanthium strumarium), morningglory (Ipomoea coccinea), nightshade (eastern black nightshade, Solanum ptycanthum), kochia (Kochia scoparia), yellow nutsedge (Cyperus esculentus), and hairy beggarticks (Bidens pilosa), were planted into a silt loam soil and treated preemergence with test chemicals formulated in a non-phytotoxic solvent mixture which included a surfactant.
(§4) At the same time, plants from these crop and weed species and also horseweed (Canada horseweed, Conyza canadensis), smartweed (ladysthumb smartweed, Polygonum persicaria), waterhemp_RES1, (ALS & Triazine resistant common waterhemp, Amaranthus rudis), and waterhemp_RES2, (ALS & HPPD resistant common waterhemp, Amaranthus rudis) were treated with postemergence applications of test chemicals formulated in the same manner. Plants ranged in height from 2 to 18 cm for postemergence treatments (1- to 4-leaf stage). Treated plants and controls were maintained in a greenhouse for 14 to 21 days, after which time all species were compared to controls and visually evaluated. Plant response ratings, summarized in Table F, are based on a scale of 0 to 100 where 0 is no effect and 100 is complete control. A dash (-) response means no test result.

goosegrass = assay: Test F preemergence; type: in vivo, Eleusine indica
Description: as §3, §4

barnyardgrass = assay: Test F preemergence; type: in vivo, Echinochloa crus-galli
Description: as §3, §4

soybean = assay: Test F preemergence; type: in vivo, Glycine max
Description: as §3, §4

[3] = Preemergence, 31 g ai/ha, scale 0 to 100
[4] = Preemergence, 62 g ai/ha, scale 0 to 100
[5] = Preemergence, 125 g ai/ha, scale 0 to 100
[6] = preemergence, 8 g ai/ha, scale 0 to 100, 100 is complete control
[7] = preemergence, 16 g ai/ha, scale 0 to 100, 100 is complete control
[8] = Preemergence, 16 g ai/ha, scale 0 to 100
[9] = Preemergence, 250 g ai/ha, scale 0 to 100

SMILES: CCc1cc(C(=O)NC(C)C)nn1Cc1ccnc(C(F)(F)F)c1 [Compound 103]
- Buckwheat, Wild plant response rating (buckwheat, wild; Postemergence, 31 g ai/ha): 25
- Buckwheat, Wild plant response rating (buckwheat, wild; Postemergence, 125 g ai/ha): 55
- Buckwheat, Wild plant response rating (buckwheat, wild; Postemergence, 250 g ai/ha): 60
- Buckwheat, Wild plant response rating (buckwheat, wild; postemergence, 62 g ai/ha): 50
- Galium plant response rating (galium; Postemergence, 31 g ai/ha): 55
- Galium plant response rating (galium; Postemergence, 125 g ai/ha): 75
- Galium plant response rating (galium; Postemergence, 250 g ai/ha): 80
- Galium plant response rating (galium; postemergence, 62 g ai/ha): 70
- Plant response rating, Wheat, Spring (wheat, spring; 31 g ai/ha): 0
- Plant response rating, Wheat, Spring (wheat, spring; 62 g ai/ha): 10
- Plant response rating, Wheat, Spring (wheat, spring; 125 g ai/ha): 25
- Plant response rating, Wheat, Spring (wheat, spring; 250 g ai/ha): 85
- Plant response rating, Wheat, Winter (wheat, winter; 31 g ai/ha): 0
- Plant response rating, Wheat, Winter (wheat, winter; 62 g ai/ha): 10
- Plant response rating, Wheat, Winter (wheat, winter; 125 g ai/ha): 65
- Plant response rating, Wheat, Winter (wheat, winter; 250 g ai/ha): 70
- Plant response rating, Chickweed (chickweed; 31 g ai/ha): 95
- Plant response rating, Chickweed (chickweed; 62 g ai/ha): 100
- Plant response rating, Chickweed (chickweed; 125 g ai/ha): 100
- Plant response rating, Chickweed (chickweed; 250 g ai/ha): 100
- Plant response rating, Windgrass (windgrass [1]; 31 g ai/ha): 15
- Plant response rating, Windgrass (windgrass [1]; 62 g ai/ha): 80
- Plant response rating, Windgrass (windgrass [1]; 125 g ai/ha): 100
- Plant response rating, Windgrass (windgrass [1]; 250 g ai/ha): 100
- Plant response rating, Blackgrass (blackgrass; 62 g ai/ha): 50
- Plant response rating, Blackgrass (blackgrass; 125 g ai/ha): 85
- Plant response rating, Blackgrass (blackgrass; 250 g ai/ha): 100
- Plant response rating, Field Violet (field violet; 31 g ai/ha): 95
- Plant response rating, Field Violet (field violet; 62 g ai/ha): 100
- Plant response rating, Field Violet (field violet; 125 g ai/ha): 100
- Plant response rating, Field Violet (field violet; 250 g ai/ha): 100
- Windgrass plant response rating (windgrass [2]; Postemergence, 31 g ai/ha): 10
- Windgrass plant response rating (windgrass [2]; Postemergence, 125 g ai/ha): 25
- Windgrass plant response rating (windgrass [2]; Postemergence, 250 g ai/ha): 35
- Windgrass plant response rating (windgrass [2]; postemergence, 62 g ai/ha): 20
- Plant response rating, Field Poppy (field poppy; 31 g ai/ha): 100
- Plant response rating, Field Poppy (field poppy; 62 g ai/ha): 100
- Plant response rating, Field Poppy (field poppy; 125 g ai/ha): 100
- Plant response rating, Field Poppy (field poppy; 250 g ai/ha): 100

SMILES: CCOc1cc(C(=O)NCC(F)(F)F)nn1Cc1ccnc(C(F)(F)F)c1 [Compound 104]
- Plant response rating, Dayflower, VA (dayflower, VA; [3]): 50
- Plant response rating, Dayflower, VA (dayflower, VA; [4]): 98
- Plant response rating, Dayflower, VA (dayflower, VA; [5]): 100
- Plant response rating, Dayflower, VA (dayflower, VA; [6]): 0
- Plant response rating, Dayflower, VA (dayflower, VA; [7]): 0
- Plant response rating, Goosegrass (goosegrass; [3]): 30
- Plant response rating, Goosegrass (goosegrass; [4]): 75
- Plant response rating, Goosegrass (goosegrass; [5]): 100
- Plant response rating, Goosegrass (goosegrass; [6]): 5
- Plant response rating, Goosegrass (goosegrass; [7]): 25
- Plant response rating, Barnyardgrass (barnyardgrass; [3]): 50
- Plant response rating, Barnyardgrass (barnyardgrass; [4]): 100
- Plant response rating, Barnyardgrass (barnyardgrass; [5]): 100
- Plant response rating, Barnyardgrass (barnyardgrass; [6]): 10
- Plant response rating, Barnyardgrass (barnyardgrass; [7]): 20
- Plant response rating, Soybean (soybean; [3]): 25
- Plant response rating, Soybean (soybean; [4]): 70
- Plant response rating, Soybean (soybean; [5]): 90
- Plant response rating, Soybean (soybean; [6]): 0
- Plant response rating, Soybean (soybean; [7]): 0

SMILES: CCNC(=O)c1cc(CCCl)n(Cc2ccnc(C(F)(F)F)c2)n1 [Compound 179]
- Plant response rating, Dayflower, VA (dayflower, VA; [3]): 0
- Plant response rating, Dayflower, VA (dayflower, VA; [4]): 10
- Plant response rating, Dayflower, VA (dayflower, VA; [5]): 40
- Plant response rating, Dayflower, VA (dayflower, VA; [6]): 0
- Plant response rating, Goosegrass (goosegrass; [3]): 30
- Plant response rating, Goosegrass (goosegrass; [4]): 30
- Plant response rating, Goosegrass (goosegrass; [5]): 30
- Plant response rating, Goosegrass (goosegrass; [6]): 0
- Plant response rating, Barnyardgrass (barnyardgrass; [3]): 15
- Plant response rating, Barnyardgrass (barnyardgrass; [4]): 20
- Plant response rating, Barnyardgrass (barnyardgrass; [5]): 50
- Plant response rating, Barnyardgrass (barnyardgrass; [6]): 0
- Plant response rating, Soybean (soybean; [3]): 35
- Plant response rating, Soybean (soybean; [4]): 65
- Plant response rating, Soybean (soybean; [5]): 70
- Plant response rating, Soybean (soybean; [6]): 0

SMILES: CCNC(=O)c1cc(CC)n(Cc2ccnc(C(F)(F)F)c2)n1 [Compound 196]
- Plant response rating, Dayflower, VA (dayflower, VA; [4]): 35
- Plant response rating, Dayflower, VA (dayflower, VA; [5]): 75
- Plant response rating, Dayflower, VA (dayflower, VA; [6]): 0
- Plant response rating, Dayflower, VA (dayflower, VA; [7]): 0
- Plant response rating, Goosegrass (goosegrass; [4]): 70
- Plant response rating, Goosegrass (goosegrass; [5]): 95
- Plant response rating, Goosegrass (goosegrass; [6]): 0
- Plant response rating, Goosegrass (goosegrass; [7]): 0
- Plant response rating, Barnyardgrass (barnyardgrass; [8]): 0
- Plant response rating, Barnyardgrass (barnyardgrass; [4]): 10
- Plant response rating, Barnyardgrass (barnyardgrass; [5]): 65
- Plant response rating, Barnyardgrass (barnyardgrass; [6]): 0
- Plant response rating, Barnyardgrass (barnyardgrass; [7]): 0
- Plant response rating, Soybean (soybean; [8]): 20
- Plant response rating, Soybean (soybean; [4]): 50
- Plant response rating, Soybean (soybean; [5]): 50
- Plant response rating, Soybean (soybean; [6]): 0
- Plant response rating, Soybean (soybean; [7]): 0

SMILES: Cc1cc(C(=O)NC(C)C)nn1Cc1ccnc(C(F)(F)F)c1 [Compound 197]
- Plant response rating, Dayflower, VA (dayflower, VA; [4]): 0
- Plant response rating, Dayflower, VA (dayflower, VA; [5]): 40
- Plant response rating, Dayflower, VA (dayflower, VA; [6]): 0
- Plant response rating, Dayflower, VA (dayflower, VA; [7]): 0
- Plant response rating, Goosegrass (goosegrass; [4]): 5
- Plant response rating, Goosegrass (goosegrass; [5]): 70
- Plant response rating, Goosegrass (goosegrass; [6]): 0
- Plant response rating, Goosegrass (goosegrass; [7]): 0
- Plant response rating, Barnyardgrass (barnyardgrass; [8]): 0
- Plant response rating, Barnyardgrass (barnyardgrass; [4]): 0
- Plant response rating, Barnyardgrass (barnyardgrass; [5]): 0
- Plant response rating, Barnyardgrass (barnyardgrass; [6]): 0
- Plant response rating, Barnyardgrass (barnyardgrass; [7]): 0
- Plant response rating, Soybean (soybean; [8]): 10
- Plant response rating, Soybean (soybean; [4]): 20
- Plant response rating, Soybean (soybean; [5]): 65
- Plant response rating, Soybean (soybean; [6]): 0
- Plant response rating, Soybean (soybean; [7]): 5

SMILES: CCc1cc(C(=O)NC2CC2)nn1Cc1ccnc(OCC(F)(F)F)c1 [Compound 200]
- Plant response rating, Dayflower, VA (dayflower, VA; [9]): 60
- Plant response rating, Dayflower, VA (dayflower, VA; [4]): 0
- Plant response rating, Dayflower, VA (dayflower, VA; [5]): 10
- Plant response rating, Dayflower, VA (dayflower, VA; [7]): 0
- Plant response rating, Goosegrass (goosegrass; [9]): 90
- Plant response rating, Goosegrass (goosegrass; [4]): 35
- Plant response rating, Goosegrass (goosegrass; [5]): 65
- Plant response rating, Goosegrass (goosegrass; [7]): 0
- Plant response rating, Barnyardgrass (barnyardgrass; [9]): 50
- Plant response rating, Barnyardgrass (barnyardgrass; [8]): 15
- Plant response rating, Barnyardgrass (barnyardgrass; [4]): 25
- Plant response rating, Barnyardgrass (barnyardgrass; [5]): 20
- Plant response rating, Barnyardgrass (barnyardgrass; [7]): 0
- Plant response rating, Soybean (soybean; [9]): 75
- Plant response rating, Soybean (soybean; [8]): 0
- Plant response rating, Soybean (soybean; [4]): 0
- Plant response rating, Soybean (soybean; [5]): 65
- Plant response rating, Soybean (soybean; [7]): 0
